# pIC50: −log10 of the molar value. Activity calls are given as the source filed them. The rule behind the calls is not given here.
# Key:
# RAW264.7 [1] = experiment: Cytotoxicity against mouse RAW264.7 cells up to 50 ug/ml after 24 hrs by MTT assay in presence of LPS; type: cell-based; settings: raw264.7, 24 h
# [2] = (§1) Inhibition of LPS-induced NF-kappaB activation in HEK293 cells incubated for 4 hrs prior to LPS challenge measured after 48 hrs by luciferase reporter gene assay; type: cell-based; settings: Homo sapiens
# HEK293 = experiment: as §1; type: cell-based; settings: Homo sapiens
# RAW264.7 [3] = experiment: Antiinflammatory activity in mouse RAW264.7 cells assessed as inhibition of LPS-induced TNF-alpha release at 0.5 to 100 ug/ml incubated for 4 hrs prior to LPS challenge measured after 24 hrs by ELISA; type: functional, cell-based
# RAW264.7 [4] = experiment: Antiinflammatory activity in mouse RAW264.7 cells assessed as inhibition of LPS-induced IL-6 release at 0.5 to 100 ug/ml incubated for 4 hrs prior to LPS challenge measured after 24 hrs by ELISA; type: functional, cell-based
# RAW264.7 [5] = experiment: Antiinflammatory activity in mouse RAW264.7 cells assessed as inhibition of LPS-induced IL-10 release at 0.5 to 100 ug/ml incubated for 4 hrs prior to LPS challenge measured after 24 hrs by ELISA; type: functional, cell-based
# RAW264.7 [6] = experiment: Antiinflammatory activity in mouse RAW264.7 cells assessed as inhibition of LPS-induced IL-1beta release at 0.5 to 100 ug/ml incubated for 4 hrs prior to LPS challenge measured after 24 hrs by ELISA; type: functional, cell-based
# RAW264.7 [7] = experiment: Antiinflammatory activity in mouse RAW264.7 cells assessed as inhibition of LPS-induced IL-6 release incubated for 4 hrs prior to LPS challenge measured after 24 hrs by ELISA; type: functional, cell-based
# RAW264.7 [8] = experiment: Antiinflammatory activity in mouse RAW264.7 cells assessed as inhibition of LPS-induced IL-10 release incubated for 4 hrs prior to LPS challenge measured after 24 hrs by ELISA; type: functional, cell-based
# RAW264.7 [9] = experiment: Antiinflammatory activity in mouse RAW264.7 cells assessed as inhibition of LPS-induced IL-1beta release incubated for 4 hrs prior to LPS challenge measured after 24 hrs by ELISA; type: functional, cell-based
# RAW264.7 [10] = experiment: Antiinflammatory activity in mouse RAW264.7 cells assessed as inhibition of LPS-induced TNF-alpha release incubated for 4 hrs prior to LPS challenge measured after 24 hrs by ELISA; type: functional, cell-based
Compound,Activity (RAW264.7 [1]),pIC50 [2],inhibition (HEK293),inhibition (RAW264.7 [3]),inhibition (RAW264.7 [4]),inhibition (RAW264.7 [5]),inhibition (RAW264.7 [6]),pIC50 (RAW264.7 [7]),pIC50 (RAW264.7 [8]),pIC50 (RAW264.7 [9]),pIC50 (RAW264.7 [10])
C[C@@H]1CC[C@]2(C(=O)O)CC[C@]3(C)C(=CC[C@@H]4[C@@]5(C)C[C@@H](O)[C@H](O)[C@@](C)(CO)[C@@H]5CC[C@]43C)[C@@H]2[C@]1(C)O,Non-toxic,4.10,Dose-dependent effect,Active,Active,Active,Active,–,–,–,–
C[C@]1(CO)CC[C@]2(C(=O)O[C@@H]3O[C@H](CO)[C@@H](O)[C@H](O)[C@H]3O)CC[C@]3(C)C(=C2C1)CC[C@@H]1[C@@]2(C)C[C@@H](O)[C@H](O)[C@@](C)(CO)[C@@H]2CC[C@]13C,Non-toxic,4.18,Dose-dependent effect,Active,Active,Active,Active,–,–,–,–
C[C@@H]1CC[C@]2(C(=O)O)CC[C@]3(C)C(=CC[C@@H]4[C@@]5(C)C[C@@H](O)[C@@H](O)[C@@](C)(CO)[C@@H]5CC[C@]43C)[C@@H]2[C@]1(C)O,Non-toxic,4.63,Dose-dependent effect,Active,Active,Active,Active,5.09,4.98,5.07,4.84
C[C@@H]1CC[C@]2(C(=O)O)CC[C@]3(C)C(=CC[C@@H]4[C@@]5(C)C[C@@H](O)[C@@H](O)C(C)(C)[C@@H]5CC[C@]43C)[C@@H]2[C@]1(C)O [EUSCAPHIC ACID],Non-toxic,3.76,Dose-dependent effect,–,–,–,–,–,–,–,–

# From ChEMBL document CHEMBL2384960, “Anti-inflammatory secondary metabolites from the leaves of Rosa laevigata” (Bioorg Med Chem, 2013)
